Counter-ions that a name gives are not always drawn.
Columns and labels:
[1] = test system: human and animal plasma; test: Determination of anticoagulatory activity: activated partial thromboplastin time (aPTT) in plasma; format: biochemical; details: concentration of test substance which brings about a 1.5-fold extension of the aPTT, 37° C., C.K. Prest kit
Method: The anticoagulatory activity of the test substances is determined in vitro in human and animal plasma (for example mouse, rat, rabbit, pig and dog plasma). To this end, blood is drawn off in a mixing ratio of sodium citrate/blood of 1:9 using a 0.11 molar sodium citrate solution as receiver. Immediately after the blood has been drawn off, it is mixed thoroughly and centrifuged at about 4000 g for 15 minutes. The supernatant is pipetted off.
The activated partial thromboplastin time (aPTT) is determined in the presence of varying concentrations of test substance or the corresponding solvent using a commercial test kit (C.K. Prest from Diagnostica Stago). The test compounds are incubated with the plasma and the PTT reagent (cephalin, kaolin) at 37° C. for 3 minutes. Coagulation is then started by addition of a 25 mM aqueous calcium chloride solution, and the time when coagulation occurs is determined. The concentration of test substance which brings about a 1.5-fold extension of the aPTT is determined Activity data from this test are listed in Table B below: […]

[2] = target: T1, human factor XIa (Homo sapiens, UniProt P03951); test: Measurement of FXIa inhibition (fluorogenic peptide substrate Boc-Glu(OBzl)-Ala-Arg-AMC); format: biochemical; details: factor XIa from Kordia, 15 min preincubation, 30 min at 22° C., fluorescence
T1 construct: purchased Kordia
T1 sequence (P03951 388-625 limits assumed): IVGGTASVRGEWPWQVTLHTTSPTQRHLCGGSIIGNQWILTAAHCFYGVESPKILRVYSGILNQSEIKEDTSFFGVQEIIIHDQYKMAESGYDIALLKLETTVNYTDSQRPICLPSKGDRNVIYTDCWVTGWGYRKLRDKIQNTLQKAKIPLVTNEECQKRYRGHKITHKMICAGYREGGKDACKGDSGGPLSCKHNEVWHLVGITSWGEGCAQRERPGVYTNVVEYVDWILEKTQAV
T1 sequence (P03951 19-387 partner limits assumed): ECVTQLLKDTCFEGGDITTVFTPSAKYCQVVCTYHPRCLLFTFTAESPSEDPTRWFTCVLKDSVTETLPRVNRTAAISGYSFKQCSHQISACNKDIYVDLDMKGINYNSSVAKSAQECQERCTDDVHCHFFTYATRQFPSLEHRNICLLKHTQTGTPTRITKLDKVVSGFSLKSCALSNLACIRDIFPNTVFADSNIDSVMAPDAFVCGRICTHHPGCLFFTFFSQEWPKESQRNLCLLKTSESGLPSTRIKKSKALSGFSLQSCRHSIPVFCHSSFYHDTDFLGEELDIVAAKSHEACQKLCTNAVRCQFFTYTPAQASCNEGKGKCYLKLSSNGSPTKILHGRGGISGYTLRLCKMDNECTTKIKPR
Method: The factor XIa inhibition of the substances according to the invention is determined using a biochemical test system which utilizes the reaction of a peptidic factor XIa substrate to determine the enzymatic activity of human factor XIa. Here, factor XIa cleaves from the peptic factor XIa substrate the C-terminal aminomethylcoumarin (AMC), the fluorescence of which is measured. The determinations are carried out in microtitre plates.
Test substances are dissolved in dimethyl sulphoxide and serially diluted in dimethyl sulphoxide (3000 μM to 0.0078 μM; resulting final concentrations in the test: 50 μM to 0.00013 μM). In each case 1 μl of the diluted substance solutions is placed into the wells of white microtitre plates from Greiner (384 wells). Subsequently, the following are added successively: 20 μl of assay buffer (50 mmol/l Tris buffer pH 7.4; 100 mmol/l sodium chloride; 5 mmol/l calcium chloride; 0.1% bovine serum albumin) and 20 μl of factor XIa from Kordia (0.45 nM in assay buffer). After 15 min of incubation, the enzyme reaction is started by addition of 20 μl of the factor XIa substrate Boc-Glu(OBzl)-Ala-Arg-AMC dissolved in assay buffer (10 μM in assay buffer) from Bachem, the mixture is incubated at room temperature (22° C.) for 30 min and fluorescence is then measured (excitation: 360 nm, emission: 460 nm). The measured emissions of the test batches with test substance are compared to those of control batches without test substance (only dimethyl sulphoxide instead of test substance in dimethyl sulphoxide), and IC50 values are calculated from the concentration/activity relationships.

For `NC[C@H]1CC[C@H](C(=O)N[C@@H](Cc2ccc(-c3ccc(C(F)(F)F)nc3)cc2)C(=O)Nc2ccc(-c3nn[nH]n3)cc2)CC1` [Example 18, N-alpha-{[trans-4-(Aminomethyl)cyclohexyl]carbonyl}-N-[4-(2H-tetrazol-5-yl)phenyl]-4-[6-(trifluoromethyl)pyridin-3-yl]-L-phenylalaninamide hydrochloride], the “aPTT” value [1] was 0.33 µmol/L and the IC50 [2] was 2.7 nM.
`CN(C)CCCOc1ccc(-c2ccc(C[C@H](NC(=O)[C@H]3CC[C@H](CN)CC3)C(=O)Nc3ccc(-c4noc(=O)[nH]4)cc3)cc2)cn1` [Example 19, N-alpha-{[trans-4-(Aminomethyl)cyclohexyl]carbonyl}-4-{6-[3-(dimethylamino)propoxy]pyridin-3-yl}-N-[4-(5-oxo-4,5-dihydro-1,2,4-oxadiazol-3-yl)phenyl]-L-phenylalaninamide hydrochloride] was tested, and the “aPTT” value [1] was 0.17 µmol/L and the IC50 [2] was 16 nM.
With `COc1cnccc1-c1ccc(C[C@H](NC(=O)[C@H]2CC[C@H](CN)CC2)C(=O)Nc2ccc(-c3nn[nH]n3)cc2)cc1` [Example 20, N-alpha-{[trans-4-(Aminomethyl)cyclohexyl]carbonyl}-4-(3-methoxypyridin-4-yl)-N-[4-(2H-tetrazol-5-yl)phenyl]-L-phenylalaninamide hydrochloride] the “aPTT” value [1] was 0.22 µmol/L and the IC50 [2] was 3.8 nM.
For `COc1ccc(-c2ccc(C[C@H](NC(=O)[C@H]3CC[C@H](CN)CC3)C(=O)Nc3ccc(-c4nn[nH]n4)cc3)cc2)c(C)n1` [Example 21, N-alpha-{[trans-4-(Aminomethyl)cyclohexyl]carbonyl}-4-(6-methoxy-2-methylpyridin-3-yl)-N-[4-(2H-tetrazol-5-yl)phenyl]-L-phenylalaninamide hydrochloride], the “aPTT” value [1] was 0.27 µmol/L and the IC50 [2] was 1.3 nM.
With `CN(C)c1ncc(-c2ccc(C[C@H](NC(=O)[C@H]3CC[C@H](CN)CC3)C(=O)Nc3ccc(-c4nn[nH]n4)cc3)cc2)c(OCc2ccccc2)n1` [Example 22, N-alpha-{[trans-4-(Aminomethyl)cyclohexyl]carbonyl}-4-[4-(benzyloxy)-2-(dimethylamino)-pyrimidin-5-yl]-N-[4-(2H-tetrazol-5-yl)phenyl]-L-phenylalaninamide hydrochloride] the “aPTT” value [1] was 0.27 µmol/L and the IC50 [2] was 6.1 nM.
For `Cc1cnccc1-c1ccc(C[C@H](NC(=O)[C@H]2CC[C@H](CN)CC2)C(=O)Nc2ccc3c(=O)[nH][nH]c3c2)cc1` [Example 23, N-alpha-{[trans-4-(Aminomethyl)cyclohexyl]carbonyl}-4-(3-methylpyridin-4-yl)-N-(3-oxo-2,3-dihydro-1H-indazol-6-yl)-L-phenylalaninamide hydrochloride], the “aPTT” value [1] was 0.24 µmol/L and the IC50 [2] was 3.6 nM.
With `NC[C@H]1CC[C@H](C(=O)N[C@@H](Cc2ccc(-c3ccc(N4CCOCC4)nc3)cc2)C(=O)Nc2ccc3c(=O)[nH][nH]c3c2)CC1` [Example 24, N-alpha-{[trans-4-(Aminomethyl)cyclohexyl]carbonyl}-4-[6-(morpholin-4-yl)pyridin-3-yl]-N-(3-oxo-2,3-dihydro-1H-indazol-6-yl)-L-phenylalaninamide hydrochloride] the “aPTT” value [1] was 0.18 µmol/L and the IC50 [2] was 3.1 nM.
In the case of `CN(C)c1ncc(-c2ccc(C[C@H](NC(=O)[C@H]3CC[C@H](CN)CC3)C(=O)Nc3ccc(-c4nn[nH]n4)cc3)cc2)cn1` [Example 25, N-alpha-{[trans-4-(Aminomethyl)cyclohexyl]carbonyl}-4-[2-(dimethylamino)pyrimidin-5-yl]-N-[4-(2H-tetrazol-5-yl)phenyl]-L-phenylalaninamide hydrochloride], the “aPTT” value [1] is reported as 0.29 µmol/L and the IC50 [2] is reported as 8 nM.
With `NC[C@H]1CC[C@H](C(=O)N[C@@H](Cc2ccc(-c3cccnc3N)cc2)C(=O)Nc2ccc(-c3nn[nH]n3)cc2)CC1` [Example 26, N-alpha-{[trans-4-(Aminomethyl)cyclohexyl]carbonyl}-4-(2-aminopyridin-3-yl)-N-[4-(2H-tetrazol-5-yl)phenyl]-L-phenylalaninamide hydrochloride] the “aPTT” value [1] was 0.19 µmol/L and the IC50 [2] was 3.7 nM.
`Cc1ncccc1-c1ccc(C[C@H](NC(=O)[C@H]2CC[C@H](CN)CC2)C(=O)Nc2ccc3c(=O)[nH][nH]c3c2)cc1` [Example 27, N-alpha-{[trans-4-(Aminomethyl)cyclohexyl]carbonyl}-4-(2-methylpyridin-3-yl)-N-(3-oxo-2,3-dihydro-1H-indazol-6-yl)-L-phenylalaninamide hydrochloride] was tested, and the “aPTT” value [1] was 0.24 µmol/L and the IC50 [2] was 5.6 nM.
`Cc1cc(N2CCOCC2)ncc1-c1ccc(C[C@H](NC(=O)[C@H]2CC[C@H](CN)CC2)C(=O)Nc2ccc(-c3nn[nH]n3)cc2)cc1` [Example 29, N-alpha-{[trans-4-(Aminomethyl)cyclohexyl]carbonyl}-4-[4-methyl-6-(morpholin-4-yl)pyridin-3-yl]-N-[4-(2H-tetrazol-5-yl)phenyl]-L-phenylalaninamide hydrochloride] was tested, and the “aPTT” value [1] was 0.21 µmol/L and the IC50 [2] was 1.3 nM.
`COc1ccc(-c2ccc(C[C@H](NC(=O)[C@H]3CC[C@H](CN)CC3)C(=O)Nc3ccc4c(=O)[nH][nH]c4c3)cc2)c(C)n1` [Example 30, N-alpha-{[trans-4-(Aminomethyl)cyclohexyl]carbonyl}-4-(6-methoxy-2-methylpyridin-3-yl)-N-(3-oxo-2,3-dihydro-1H-indazol-6-yl)-L-phenylalaninamide hydrochloride] was tested, and the “aPTT” value [1] was 0.34 µmol/L and the IC50 [2] was 6.7 nM.
`COc1nc(N2CCN(C)CC2)ncc1-c1ccc(C[C@H](NC(=O)[C@H]2CC[C@H](CN)CC2)C(=O)Nc2ccc(-c3nn[nH]n3)cc2)cc1` [Example 31, N-alpha-{[trans-4-(Aminomethyl)cyclohexyl]carbonyl}-4-[4-methoxy-2-(4-methylpiperazin-1-yl)pyrimidin-5-yl]-N-[4-(2H-tetrazol-5-yl)phenyl]-L-phenylalaninamide hydrochloride] was tested, and the “aPTT” value [1] was 0.22 µmol/L and the IC50 [2] was 15 nM.
With `NC[C@H]1CC[C@H](C(=O)N[C@@H](Cc2ccc(-c3ccc(Oc4cccnc4)nc3)cc2)C(=O)Nc2ccc(-c3nn[nH]n3)cc2)CC1` [Example 32, N-alpha-{[trans-4-(Aminomethyl)cyclohexyl]carbonyl}-4-[6-(pyridin-3-yloxy)pyridin-3-yl]-N-[4-(2H-tetrazol-5-yl)phenyl]-L-phenylalaninamide hydrochloride] the “aPTT” value [1] was 0.3 µmol/L and the IC50 [2] was 2.4 nM.
For `NC[C@H]1CC[C@H](C(=O)N[C@@H](Cc2ccc(-c3ccnc(N4CCNCC4)c3)cc2)C(=O)Nc2ccc(-c3nn[nH]n3)cc2)CC1` [Example 33, N-alpha-{[trans-4-(Aminomethyl)cyclohexyl]carbonyl}-4-[2-(piperazin-1-yl)pyridin-4-yl]-N-[4-(2H-tetrazol-5-yl)phenyl]-L-phenylalaninamide hydrochloride], the “aPTT” value [1] was 0.29 µmol/L and the IC50 [2] was 20 nM.
In the case of `NC[C@H]1CC[C@H](C(=O)N[C@@H](Cc2ccc(-c3ccc(N4CCOCC4)nc3)cc2)C(=O)Nc2ccc(-c3cc(=O)[nH][nH]3)cc2)CC1` [Example 34, N-alpha-{[trans-4-(Aminomethyl)cyclohexyl]carbonyl}-4-[6-(morpholin-4-yl)pyridin-3-yl]-N-[4-(5-oxo-2,5-dihydro-1H-pyrazol-3-yl)phenyl]-L-phenylalaninamide hydrochloride], the “aPTT” value [1] is reported as 0.14 µmol/L and the IC50 [2] is reported as 5.4 nM.
In the case of `NC[C@H]1CC[C@H](C(=O)N[C@@H](Cc2ccc(-c3ccnc(N4CCOCC4)c3)cc2)C(=O)Nc2ccc(-c3nn[nH]n3)cc2)CC1` [Example 35, N-alpha-{[trans-4-(Aminomethyl)cyclohexyl]carbonyl}-4-[2-(morpholin-4-yl)pyridin-4-yl]-N-[4-(2H-tetrazol-5-yl)phenyl]-L-phenylalaninamide hydrochloride], the “aPTT” value [1] is reported as 0.48 µmol/L and the IC50 [2] is reported as 5.5 nM.
With `NC[C@H]1CC[C@H](C(=O)N[C@@H](Cc2ccc(-c3cccnc3O)cc2)C(=O)Nc2ccc(-c3nn[nH]n3)cc2)CC1` [Example 37, N-alpha-{[trans-4-(Aminomethyl)cyclohexyl]carbonyl}-4-(2-hydroxypyridin-3-yl)-N-[4-(2H-tetrazol-5-yl)phenyl]-L-phenylalaninamide hydrochloride] the “aPTT” value [1] was 0.26 µmol/L and the IC50 [2] was 5.3 nM.

Source: US20160280699A1, “SUBSTITUTED PHENYLALANINE DERIVATIVES” (BAYER PHARMA AKTIENGESELLSCHAFT, priority 2013, published 2016)
